Tests used:
[1] = molecular target: Acetylcholinesterase (Electrophorus electricus, UniProt O42275); assay: Inhibition of electric eel AChE using acetylthiocholine iodide as substrate by Ellman's method
[2] = test system: SH-SY5Y; assay: cells; assay type: ADME, cell-based; conditions: Homo sapiens, 72 h;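 note: cytotoxicity read out with an SRB assay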
[3] = Elimination half life in human; assay type: ADME; conditions: read-out: beta t1/2
[4] = clinical; conditions: human, in vivo, po

Sequence of Acetylcholinesterase (O42275 whole entry): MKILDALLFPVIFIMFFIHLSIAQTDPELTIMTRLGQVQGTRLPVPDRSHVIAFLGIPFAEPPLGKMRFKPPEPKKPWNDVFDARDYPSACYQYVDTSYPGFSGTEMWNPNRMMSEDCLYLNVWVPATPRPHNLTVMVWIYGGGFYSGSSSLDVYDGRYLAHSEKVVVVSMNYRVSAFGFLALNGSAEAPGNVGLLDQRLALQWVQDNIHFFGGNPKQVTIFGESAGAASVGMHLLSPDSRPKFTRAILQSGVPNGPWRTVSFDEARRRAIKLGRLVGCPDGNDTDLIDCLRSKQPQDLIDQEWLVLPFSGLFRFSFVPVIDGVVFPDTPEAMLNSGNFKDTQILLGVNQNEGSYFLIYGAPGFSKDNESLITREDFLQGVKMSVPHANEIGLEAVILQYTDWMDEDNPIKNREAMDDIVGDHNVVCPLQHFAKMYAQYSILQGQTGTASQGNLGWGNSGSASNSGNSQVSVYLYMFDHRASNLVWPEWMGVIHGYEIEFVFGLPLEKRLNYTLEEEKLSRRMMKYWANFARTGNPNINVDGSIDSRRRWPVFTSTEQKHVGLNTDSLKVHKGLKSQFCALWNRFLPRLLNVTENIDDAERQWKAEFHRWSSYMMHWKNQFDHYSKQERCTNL

Row | Compound | IC50 [1] [nM] | IC50 [2] [µM] | half-life [3] [days] | bioavailability [4] [%]
1 | COc1cc2c(cc1OC)C(=O)C(C(=O)OCC1CCN(Cc3ccccc3)CC1)C2 (stereo not given) | > 10000 |  |  | 
2 | COc1cc2c(cc1OC)C(=O)/C(=C/C1CN(Cc3ccccc3)C1)C2 | 700 | 1.26 |  | 
3 | COc1cc2c(cc1OC)C(=O)C(C(=O)C1CCN(Cc3ccccc3)CC1)C2 (stereo not given) | 660 | 63.9 |  | 
4 | COc1cc2c(cc1OC)C(=O)C(C(=O)OCC1CCCN1Cc1ccccc1)C2 (stereo not given) | > 10000 |  |  | 
5 | COc1cc2c(cc1OC)C(=O)C(CC1CCN1Cc1ccccc1)C2 (stereo not given) | > 10000 | 58.5 |  | 
6 | COc1cc2c(cc1OC)C(=O)C(C(=O)OCC1CN1Cc1ccccc1)C2 (stereo not given) | > 10000 |  |  | 
7 | COc1cc2c(cc1OC)C(=O)C(CC1CN(Cc3ccccc3)C1)C2 (stereo not given) | 1130 | 8.01 |  | 
8 | COc1cc2c(cc1OC)C(=O)C(C(=O)OCC1CN(Cc3ccccc3)C1)C2 (stereo not given) | > 10000 | > 100 |  | 
9 | COc1cc2c(cc1OC)C(=O)C(C(=O)OCC1CCN(Cc3ccccc3)C1)C2 (stereo not given) | > 10000 |  |  | 
10 | COc1cc2c(cc1OC)C(=O)C(CC1CCN(Cc3ccccc3)C1)C2 (stereo not given) | 1740 |  |  | 
11 | COc1cc2c(cc1OC)C(=O)C(C(=O)OCC1CCCN(Cc3ccccc3)C1)C2 (stereo not given) | > 10000 |  |  | 
12 | COc1cc2c(cc1OC)C(=O)/C(=C/C1CCN(Cc3ccccc3)C1)C2 (stereo not given) | 520 | 6.59 |  | 
13 | COc1cc2c(cc1OC)C(=O)/C(=C/C1CCN(Cc3ccccc3)CC1)C2 | 420 | 3.99 |  | 
14 | COc1cc2c(cc1OC)C(=O)/C(=C/C1CCN1Cc1ccccc1)C2 (stereo not given) | > 10000 |  |  | 
15 | COc1cc2c(cc1OC)C(=O)C(C(=O)OCC1CCCCN1Cc1ccccc1)C2 (stereo not given) | > 10000 |  |  | 
16 | COc1cc2c(cc1OC)C(=O)C(CC1CCCN(Cc3ccccc3)C1)C2 (stereo not given) | 510 | 66.7 |  | 
17 | COc1cc2c(cc1OC)C(=O)C(CC1CCCCN1Cc1ccccc1)C2 (stereo not given) | 460 | > 100 |  | 
18 | COc1cc2c(cc1OC)C(=O)C(OC(=O)C1CCN(Cc3ccccc3)CC1)C2 (stereo not given) |  | > 100 |  | 
19 | COc1cc2c(cc1OC)C(=O)/C(=C/C1CCCN(Cc3ccccc3)C1)C2 (stereo not given) | 1180 | 4.72 |  | 
20 | COc1cc2c(cc1OC)C(=O)C(C(=O)OC1CCN(Cc3ccccc3)CC1)C2 (stereo not given) | 3030 | > 100 |  | 
21 | COc1cc2c(cc1OC)C(=O)/C(=C/C1CCCCN1Cc1ccccc1)C2 (stereo not given) | 750 |  |  | 
22 | COc1cc2c(cc1OC)C(=O)/C(=C/C1CCCN1Cc1ccccc1)C2 (stereo not given) | > 10000 | 19 |  | 
23 | COc1cc2c(cc1OC)C(=O)C(C(=O)OCC1CCN1Cc1ccccc1)C2 (stereo not given) | > 10000 |  |  | 
24 | COc1cc2c(cc1OC)C(=O)C(C[C@@H]1CCCN1Cc1ccccc1)C2 (stereo not given in full) | 3160 |  |  | 
25 | COc1cc2c(cc1OC)C(=O)/C(=C/C1CN1Cc1ccccc1)C2 (stereo not given) | > 10000 |  |  | 
26 | COc1cc2c(cc1OC)C(=O)C(CC1CCN(Cc3ccccc3)CC1)C2 (stereo not given) [DONEPEZIL] |  | 15.5 | 2.92 to 3.33 | 100

From ChEMBL document CHEMBL3994576, “Targeting Alzheimer's disease by investigating previously unexplored chemical space surrounding the cholinesterase inhibitor donepezil” (Eur J Med Chem, 2017)
